Measured values published in ChEMBL document CHEMBL4613209, “Quinolone hybrids and their anti-cancer activities: An overview” (Eur J Med Chem, 2019).

Experiments:
[1] = system: EJ; assay: Cytotoxicity against human EJ cells assessed as reduction in cell viability by MTT assay; type: functional, cell-based
[2] = system: SW480; assay: Cytotoxicity against human SW480 cells assessed as reduction in cell viability by MTT assay; type: functional, cell-based
[3] = system: MCF7; assay: Cytotoxicity against human MCF7 cells assessed as reduction in cell viability by MTT assay; type: functional, cell-based
[4] = system: SK-MEL3; assay: Cytotoxicity against human SK-MEL-3 cells assessed as reduction in cell viability by MTT assay; type: functional, cell-based
[5] = system: A-431; assay: Cytotoxicity against human A431 cells assessed as reduction in cell viability by MTT assay; type: functional, cell-based
[6] = system: HepG2; assay: Cytotoxicity against human HepG2 cells assessed as reduction in cell viability; type: functional, cell-based
[7] = system: SW-620; assay: Cytotoxicity against human SW620 cells assessed as reduction in cell viability; type: functional, cell-based
[8] = system: NCI-H460; assay: Cytotoxicity against human NCI-H460 cells assessed as reduction in cell viability; type: functional, cell-based
[9] = system: MCF7; assay: Cytotoxicity against human MCF7 cells assessed as reduction in cell viability; type: functional, cell-based
[10] = system: GES1; assay: Cytotoxicity against human GES-1 cells assessed as reduction in cell viability; type: cell-based
[11] = system: MGC-803; assay: Cytotoxicity against human MGC803 cells assessed as reduction in cell viability; type: functional, cell-based
[12] = system: PC-3; assay: Cytotoxicity against human PC3 cells assessed as reduction in cell viability; type: functional, cell-based
[13] = system: L1210; assay: Cytotoxicity against mouse L1210 cells assessed as reduction in cell viability; type: functional, cell-based
[14] = system: CHO; assay: Cytotoxicity against CHO cells assessed as reduction in cell viability; type: functional, cell-based; settings: Cricetulus griseus
[15] = system: HL-60; assay: Cytotoxicity against human HL60 cells assessed as reduction in cell viability; type: functional, cell-based

SMILES | IC50 [1] | IC50 [2] | IC50 [3] | IC50 [4] | IC50 [5] | IC50 [13] | IC50 [14] | IC50 [15] | also measured
O=C(CN1CCN(c2cc3c(cc2F)c(=O)c(C(=O)O)cn3C2CC2)CC1)c1ccc(Cl)s1 | ≥ 100 µM | ≥ 100 µM | ≥ 100 µM | ≥ 100 µM | ≥ 100 µM |  |  |  | 
CCn1cc(C(=O)O)c(=O)c2cc(F)c(N3CCN(CC(=O)c4ccc(Cl)s4)CC3)cc21 | ≥ 100 µM | ≥ 100 µM | ≥ 100 µM | ≥ 100 µM | ≥ 100 µM |  |  |  | 
C[C@H]1COc2c(N3CCN(C)CC3)c(F)cc3c(=O)c(-c4nnc(NC(=O)CCCCCCC(=O)Nc5ccccc5N)s4)cn1c23 |  |  |  |  |  |  |  |  | IC50 [6]: 0.046 to 0.203 µM; IC50 [7]: 0.046 to 0.203 µM; IC50 [8]: 0.046 to 0.203 µM; IC50 [9]: 0.046 to 0.203 µM; IC50 [10]: > 81.5 µM; IC50 [11]: 0.046 to 0.203 µM; IC50 [12]: 0.046 to 0.203 µM
CCn1cc(C(=O)O)c(=O)c2cc(F)c(N3CCN(CC(=O)c4cccs4)CC3)nc21 | 2 to 131 µM | 2 to 131 µM | 2 to 131 µM | 2 to 131 µM | 2 to 131 µM |  |  |  | 
CCn1cc(C(=O)O)c(=O)c2cc(F)c(N3CCN(C/C(=N/OCc4ccccc4)c4cccs4)CC3)cc21 | 2 to 131 µM | 2 to 131 µM | 2 to 131 µM | 2 to 131 µM | 2 to 131 µM |  |  |  | 
C[C@H]1COc2c(N3CCN(C)CC3)c(F)cc3c(=O)c(-c4nnc(NC(=O)CCCCCCC(=O)NO)s4)cn1c23 |  |  |  |  |  |  |  |  | IC50 [6]: 0.6 to 3.1 µM; IC50 [7]: 0.6 to 3.1 µM; IC50 [8]: 0.6 to 3.1 µM; IC50 [9]: 0.6 to 3.1 µM; IC50 [10]: > 100 µM; IC50 [11]: 0.6 to 3.1 µM; IC50 [12]: 0.6 to 3.1 µM
CCn1cc(C(=O)O)c(=O)c2cc(F)c(N3CCN(CC(=O)c4ccc(Cl)s4)CC3)nc21 | ≥ 100 µM | ≥ 100 µM | ≥ 100 µM | ≥ 100 µM | ≥ 100 µM |  |  |  | 
CCn1cc(C(=O)O)c(=O)c2cc(F)c(N3CCN(C/C(=N/O)c4cccs4)CC3)nc21 | 2 to 131 µM | 2 to 131 µM | 2 to 131 µM | 2 to 131 µM | 2 to 131 µM |  |  |  | 
C[C@H]1COc2c(N3CCN(C)CC3)c(F)cc3c(=O)c(-c4nnc(NC(=O)CCCCCCCCC(=O)O)s4)cn1c23 |  |  |  |  |  |  |  |  | IC50 [6]: 1.1 to 14.3 µM; IC50 [7]: 1.1 to 14.3 µM; IC50 [8]: 1.1 to 14.3 µM; IC50 [9]: 1.1 to 14.3 µM; IC50 [10]: > 81.5 µM; IC50 [11]: 1.1 to 14.3 µM; IC50 [12]: 1.1 to 14.3 µM
CCn1cc(C(=O)O)c(=O)c2cc(F)c(N3CCN(C/C(=N/OC)c4ccc(Cl)s4)CC3)nc21 | ≤ 20 µM | ≤ 20 µM | ≤ 20 µM | ≤ 20 µM | ≤ 20 µM |  |  |  | 
CCn1cc(C(=O)O)c(=O)c2cc(F)c(N3CCN(C/C(=N/OC)c4cccs4)CC3)cc21 | 2 to 131 µM | 2 to 131 µM | 2 to 131 µM | 2 to 131 µM | 2 to 131 µM |  |  |  | 
O=C(N/N=C/c1ccc(Cl)cc1)c1cn(C2CC2)c2cc(N/N=C/c3ccc(Cl)cc3)c(F)cc2c1=O |  |  |  |  |  | 1.5 to 23.5 µM | 1.5 to 23.5 µM | 1.5 to 23.5 µM | 
CCN1CCN(c2cc3c(cc2F)c(=O)c(-c2nn4c(-c5cn(C6CC6)c6cc(N7CCN(C)CC7)c(F)cc6c5=O)nnc4s2)nn3C2CC2)CC1 |  |  |  |  |  | 0.12 to 5.2 µM | 0.12 to 5.2 µM | 0.12 to 5.2 µM | 
CCN1CCN(c2cc3c(nc2F)c(=O)c(-c2nn4c(-c5cn(C6CC6)c6cc(N7CCN(C)CC7)c(F)cc6c5=O)nnc4s2)cn3C2CC2)CC1 |  |  |  |  |  | 0.12 to 5.2 µM | 0.12 to 5.2 µM | 0.12 to 5.2 µM | 
O=C(O)c1cn(C2CC2)c2cc(N3CCN(C/C(=N/OCc4ccccc4)c4ccc(Cl)s4)CC3)c(F)cc2c1=O | ≤ 20 µM | ≤ 20 µM | ≤ 20 µM | ≤ 20 µM | ≤ 20 µM |  |  |  | 
C[C@H]1COc2c(N3CCN(C)CC3)c(F)cc3c(=O)c(-c4nn5c(-c6cn(C7CC7)c7cc(N8CCN(C)CC8)c(F)cc7c6=O)nnc5s4)cn1c23 |  |  |  |  |  | 0.12 to 5.2 µM | 0.12 to 5.2 µM | 0.12 to 5.2 µM | 
CCn1cc(C(=O)O)c(=O)c2cc(F)c(N3CCN(C/C(=N/OC)c4cccs4)CC3)nc21 | 2 to 131 µM | 2 to 131 µM | 2 to 131 µM | 2 to 131 µM | 2 to 131 µM |  |  |  | 
CCn1cc(-c2nnc(-c3cn(C4CC4)c4cc(N5CCNCC5)c(F)cc4c3=O)o2)c(=O)c2cc(F)c(N3CCNCC3)cc21 |  |  |  |  |  | 0.26 to 14.5 µM | 0.26 to 14.5 µM | 0.26 to 14.5 µM | 
O=C(N/N=C/c1ccccc1)c1cn(C2CC2)c2cc(N/N=C/c3ccccc3)c(F)cc2c1=O |  |  |  |  |  | 1.5 to 23.5 µM | 1.5 to 23.5 µM | 1.5 to 23.5 µM | 
CCn1cc(C(=O)O)c(=O)c2cc(F)c(N3CCN(C/C(=N/OCc4ccccc4)c4cccs4)CC3)nc21 | 2 to 131 µM | 2 to 131 µM | 2 to 131 µM | 2 to 131 µM | 2 to 131 µM |  |  |  | 
O=C(N/N=C/c1ccc2c(c1)OCO2)c1cn(C2CC2)c2cc(N/N=C/c3ccc4c(c3)OCO4)c(F)cc2c1=O |  |  |  |  |  | 1.5 to 23.5 µM | 1.5 to 23.5 µM | 1.5 to 23.5 µM | 
O=C(O)c1cn(C2CC2)c2cc(N3CCN(C/C(=N/O)c4ccc(Cl)s4)CC3)c(F)cc2c1=O | ≤ 20 µM | ≤ 20 µM | ≤ 20 µM | ≤ 20 µM | ≤ 20 µM |  |  |  | 
